Results: patent US10085973B2, “Pharmaceutical composition containing a compound having a thrombopoietin receptor agonistic activity” (Shionogi & Co., Ltd., priority 2012, dated 2018)
≈ marks a conversion by molar mass, not a printed value.

Key:
[1] = Estimated PK model parameters for chronic liver disease patients (for Monte-Carlo simulation); parameters: species or system human
Description: (§1) Based on the PK/PD model in healthy adults as described in (Test Example 1), model parameters in chronic liver disease patients were estimated on the basis of the following assumptions.
PK Parameters (CL, V2/F, Q2/F, V3/F, Q3/F, V4/F, Q4/F, ktr and ka):
Therefore, as PK parameters those from healthy adults were used. As parameters ka and ktr, estimated values under the conditions of postprandial and tablets were used in line with clinical usage.

platelet count = experiment: Estimated PD model parameters for chronic liver disease patients (for Monte-Carlo simulation); parameters: species or system human
Description: as §1
Based on the pre-defined level of platelet count expected in chronic liver disease patients, the average and range of PLT0 were set to 3×10^4/μL and 2×10^4 to 4.9×10^4/μL, respectively.
It was reported that platelets destruction in chronic liver disease patients was promoted (see Reference 1) and the survival period of platelets was about ⅔ of that of healthy adults (see References 2 and 3). Therefore, kdeg, a parameter representing the elimination rate of platelets, was set to the value which was about 1.5 times of the value of healthy adults, i.e. 0.009 hr^−1. In addition, based on the relationship that the production rate of platelets is equal to the elimination rate of platelets at baseline, kpr, a parameter representing the production rate of platelets, was calculated from the formula: PLT0×kdeg. As a result, kpr was 0.027×10^4/μL/hr which was lower than the value in healthy adults (0.116×10^4/μL/hr). This estimated value matched the previous report that the production rate of platelets was decreased in chronic liver disease patients (see Reference 1).
It was assumed that a parameter km representing the maturation rate of platelets in chronic liver disease patients is similar to that in healthy adults. Therefore, the estimated value in healthy adults was used as km.
When the plasma concentration is sufficiently lower than EC50 (EC50>>C), the drug efficacy of lusutrombopag can be approximated by Emax/EC50. It was assumed based on the clinical data of eltrombopag, a drug having the same efficacy (see References 4 and 5) that Emax/EC50 in this trial was about 3 times of the value of healthy adults. […] Meanwhile, it was assumed that r in the patients was similar to that in healthy adults. Therefore, the value in healthy adults was used as r.
A reduction in the production rate of platelets with an increase in platelets, i.e. the negative feedback phenomenon, is represented by the formula (PLT0/PLT)^γ. […] Therefore, the negative feedback phenomenon was not taken into account in the present simulation.
As inter-individual variability of the respective PD parameters, the values in healthy adults were used.
The intra-individual variability of plasma concentration was not taken into account in the present simulation. As the intra-individual variability of a platelet count, the value in healthy adults was used.

[2] = system: patients with thrombocytopenia caused by chronic liver disease; experiment: Example 2 Test Example 1: repeated oral administration before percutaneous liver ablation with discontinuation criteria; type: in vivo, human
Description: To patients with thrombocytopenia caused by chronic liver disease, lusutrombopag as a pretreatment of percutaneous liver ablation was orally administered repeatedly for 7 days while applying the discontinuation criteria designed in Example 1 and profile of the platelet count was studied. In the present Example, the term “ablation” refers to radiofrequency ablation.
Patients with thrombocytopenia caused by chronic liver disease who are scheduled to undergo percutaneous liver ablation.
Patients who meet the following inclusion criteria are included. • 1) Age: 20 years of age or older (at the time of signing informed consent); • 2) Patients who themselves can give a consent in writing; • 3) Patients who have a complication or a history of chronic liver disease caused by hepatitis B or C virus; • 4) Patients who are scheduled to undergo percutaneous liver ablation for primary liver cancer; • 5) Patients having a platelet count which is less than 5×10^4/μL at the time of screening; • 6) Patients whose ECOG* Performance Status of Grade is 0 to 1; and • 7) Patients who can practice contraception from entry to the end of observation. (Exclusion Criteria)
Patients who meet the following criteria are excluded. • 1) Patients who underwent splenectomy; • 2) Patients who have a complication presenting thrombocytopenia; • 3) Patients who underwent liver transplant; • 4) Degree of hepatic disorder classified as the Child-Pugh class of C; • 5) Hepatic encephalopathy uncontrolled by medicaments; • 6) Ascites uncontrolled by medicaments; • 7) Patients who have a complication of malignant tumor other than primary liver cancer; • 8) Patients who have a complication or a history of thrombosis or thrombotic disease; • 9) Patients who have absence of hepatopetal blood flow in the portal vein; • 10) Patients who have a complication or a history of disease with hemorrhage risk; • 11) Patients who received a therapeutic agent that affects a platelet count or underwent a therapy that affects a platelet count within 90 days before registry; • 12) Patients who received a blood product (excluding erythrocyte product) within 14 days before registry; or • 13) Patients who previously received a TPO receptor agonist. (Drugs which are Prohibited, Limited or Allowed for Coadministration During the Trial)
In each allocated group, lusutrombopag is orally administered repeatedly once daily for 7 days. After patients are monitored on day 8, they undergo percutaneous liver ablation before day 13 from initiation of administration. They are monitored until about day 30 after initiation of administration.
Lusutrombopag is orally administered repeatedly once daily for 7 days. On day 1, the drug is administered at the time of visit. On day 3 to day 7 (day 5 to day 7 for the group of 2.0 mg administration), the drug shall be administered after checking the platelet count measured on the same day. Administration of lusutrombopag shall be discontinued when the platelet count reaches to the following criteria (administration discontinuating criteria) in a clinical examination after administration of the investigational drug.
Administration discontinuating criteria: when the platelet count has increased by 2×10^4/μL or more from the platelet count before initiation of administration and the platelet count has reached to 5×10^4/μL or higher.
As the platelet count before initiation of administration, the platelet count determined within 7 days before initiation of administration was used.
Daily dose was any one of 2.0, 2.5, 3.0 and 4.0 mg of lusutrombopag.
Proportion of patients who have a platelet count on day 8 after initiation of administration that increased by 2×10^4/μL or more from the platelet count before initiation of administration and reached to 5×10^4/μL or higher. […]

Q3/F, mean [1]: 0.946 L/h
Q4/F, mean [1]: 0.0262 L/h
V3/F, mean [1]: 6.28 L
V4/F, mean [1]: 2.71 L
ka, mean ([1]; postprandial and tablets): 0.854 h⁻¹
ktr, mean ([1]; postprandial and tablets): 1.38 h⁻¹
CL, mean ([1]; value of healthy adults used): 0.776 L/h
V2/F, mean ([1]; × (1 + (BW − 63) × 0.0172)): 15.9 L
EC50, mean (platelet count; set by assumption): 0.18 µg/mL (≈ 0.304 µM)
patients who had a platelet count of higher than 20×10^4/μL during the observation period ([2]; daily dose 2.0, 2.5, 3.0 and 4.0 mg): None
SMILES: CCCCCCO[C@@H](C)c1cccc(-c2csc(NC(=O)c3cc(Cl)c(/C=C(\C)C(=O)O)c(Cl)c3)n2)c1OC [lusutrombopag, (E)-3-[2,6-dichloro-4-[4-[3-[(S)-1-hexyloxyethyl]-2-methoxyphenyl]-thiazol-2-ylcarbamoyl]-phenyl]-2-methylacrylic acid]
kdeg, mean (platelet count; about 1.5 times of healthy adults): 2.5e-06 s⁻¹
Emax, mean (platelet count; set by assumption): 29.3
km, mean (platelet count; value of healthy adults): 0.0394 h⁻¹
r, mean (platelet count; value of healthy adults): 2.03
Endpoint 2: Number of patients who had a platelet count during the trial that increased by 2 × 10^4/μL or more from the count before initiation of administration and reached to 5 × 10^4/μL or higher ([2]; 2.0 mg once daily, n = 12): 9
Number of patients to whom administration was discontinued according to the administration discontinuating criteria ([2]; 2.0 mg once daily, n = 12): 3
Number of patients who received platelet transfusion ([2]; 2.0 mg once daily, n = 12): 2
Endpoint 2: Number of patients who had a platelet count during the trial that increased by 2 × 10^4/μL or more from the count before initiation of administration and reached to 5 × 10^4/μL or higher ([2]; 2.5 mg once daily, n = 6): 4
Number of patients to whom administration was discontinued according to the administration discontinuating criteria ([2]; 2.5 mg once daily, n = 6): 3
Number of patients who received platelet transfusion ([2]; 2.5 mg once daily, n = 6): 1
Endpoint 2: Number of patients who had a platelet count during the trial that increased by 2 × 10^4/μL or more from the count before initiation of administration and reached to 5 × 10^4/μL or higher ([2]; 3.0 mg once daily, n = 7): 6
Number of patients to whom administration was discontinued according to the administration discontinuating criteria ([2]; 3.0 mg once daily, n = 7): 0
Number of patients who received platelet transfusion ([2]; 3.0 mg once daily, n = 7): 1
Endpoint 2: Number of patients who had a platelet count during the trial that increased by 2 × 10^4/μL or more from the count before initiation of administration and reached to 5 × 10^4/μL or higher ([2]; 4.0 mg once daily, n = 8): 7
Number of patients to whom administration was discontinued according to the administration discontinuating criteria ([2]; 4.0 mg once daily, n = 8): 2
Number of patients who received platelet transfusion ([2]; 4.0 mg once daily, n = 8): 1
efficacy at each dose ([2]; all doses (2.0, 2.5, 3.0 and 4.0 mg)): all doses showed the efficacy
maximum platelet count of patients to whom administration was discontinued according to the criteria ([2]; groups of daily dose 2 mg, 2.5 mg and 4.0 mg, vs patients who received the drug for 7 days): lower than that of patients who received the drug for 7 days
